The values below come from PubChem BioAssay AID1895 (NMMLSC, 2009).

The structures appear in SMILES notation. pEC50, pKi: −log10 of the molar value. Calls of active or inactive are those of the source. No rule for the calls is given here.

The target of the first test is MEK5 PB1 domain binding to MEKK2 (MAP3K2) mutant PB1, human. Put plainly: inhibitors of MEK5 binding to mutant MEKK2, dose response, biochemical, bead multiplex flow cytometry (AID 1895). The following applies: Bead-based multiplex flow cytometry. In general terms: In flow cytometry, cells or beads pass a laser one at a time.
Consider `O=C(OCC1O[C@@H](OC(=O)c2cc(O)c(O)c(O)c2)[C@@H](OC(=O)c2cc(O)c(O)c(O)c2)[C@@H](OC(=O)c2cc(O)c(O)c(O)c2)[C@@H]1OC(=O)c1cc(O)c(O)c(O)c1)c1cc(O)c(O)c(O)c1` (stereo not given in full), for which the EC50 (in general, the concentration needed to bring the measured effect to its halfway point) is > 30 µM (inactive).

In the case of `O=C(NNc1c2ccccc2nc2ccccc12)c1cc2ccccc2cc1O`, the EC50 is > 30 µM (inactive).

As for `CN1C(=O)/C(=C\c2ccc(-c3ccccc3)o2)SC1=S`, the EC50 was > 30 µM (inactive).

On to `CN1CCN(c2ccc(NC(=O)c3ccc(-c4ccc(Cl)cc4)o3)cc2)CC1`, for which the EC50 was > 30 µM (inactive).

For `CCN1/C(=C/c2ccc3cc(C)cc(C)c3[n+]2CC)Sc2cc(C)ccc21`, the pEC50 (commonly the EC50 on a negative log10 scale, so that one unit is a factor of ten) was 5.75.

In the case of `CCN1/C(=C/C(C)=C/c2sc3ccccc3[n+]2CC)Sc2ccccc21`, the EC50 is > 30 µM (inactive).

In the case of `Cc1cc2ccccc2n1CCNC(=O)c1cccs1`, the EC50 is > 30 µM (inactive).

Turning to `N=C(N)SCc1cn(-c2ccccc2)nc1-c1ccc(Br)cc1`, the pEC50 was 5.07.

For `Cc1ccccc1OCC(O)CNC1CCC(NCC(O)COc2ccccc2C)CC1` (stereo not given), the EC50 was > 30 µM (inactive).

For the compound `Cc1cc2cc(CNC(=O)NC3CCCCC3)ccc2[nH]1`, the EC50 is > 30 µM (inactive).

Turning to `Nc1ccc2nc(-c3ccc(-c4nc5ccc(N)cc5[nH]4)cc3)[nH]c2c1`, the EC50 was > 30 µM (inactive).

Turning to `CCCN(CCC)CCNC(=O)c1cc2c(-c3ccc(Cl)cc3)nn(C)c2s1`, the pEC50 was 4.95.

`Cc1nc(N)sc1-c1csc(Nc2ncccn2)n1`: the EC50 is > 30 µM (inactive).

On to `O=C1Nc2ccc(Br)cc2/C1=N/N=C/C1=C(N2CCOCC2)C(=C\c2ccccc2)/CC1`, for which the EC50 result is “inactive”.

Regarding `CCc1ccc(Nc2n[n+](-c3ccccc3)c(-c3ccc(OC)c(Br)c3)s2)cc1`, the pEC50 was 5.34.

Consider `CCN1CCN(CCNC(=O)c2ccc(/C=C3/Sc4ccccc4N(Cc4cccc(C)c4)C3=O)cc2)CC1`, for which the pEC50 is 4.98.

Consider `O=C(Nc1ccc(Cl)cn1)c1ccc2c(Cl)c3c(nc2c1)CCC3`, for which the EC50 is > 30 µM (inactive).

As to `C#CCOCCOCCOCCNc1nc(N2CCN(C(=O)C(Cc3cc4ccccc4[nH]3)n3cc(C(N)C(C)CC)nn3)CC2)nc(N2CCN(C(=O)C(Cc3cc4ccccc4[nH]3)n3cc(C(N)C(C)CC)nn3)CC2)n1` (stereo not given), the pEC50 was 5.39.

On to `COc1ccc(C(CCNCc2ccc(OC(C)C)cc2)c2ccccc2OC)cc1` (stereo not given), for which the EC50 was > 30 µM (inactive).

Regarding `CN1C(=CC=C2C=C(I)C(=O)C(I)=C2)C(C)(C)c2ccccc21`, the negative-log EC50 (pEC50) is 5.29.

For the compound `CCN(CC)CCOC(=O)c1ccc(N/C=C(/C#N)c2nc(-c3cc4ccccc4oc3=O)cs2)cc1`, the pEC50 is 5.31.

`N#CC(C#N)=c1ccc2c(c1)N1C(c3ccccc3)=CC(c3ccccc3)C3CCCCC31N=2` (stereo not given): the EC50 is > 30 µM (inactive).

As to `CCOC(=O)c1c(C)n(-c2ccc(C)cc2)c2ccc(OCC(O)CN3CCN(C)CC3)cc12` (stereo not given), the EC50 is > 30 µM (inactive).

Turning to `CCOC(=O)C1=C(c2ccccc2)NC(N)=NC1c1ccc(OCc2ccc(Cl)cc2)c(OC)c1` (stereo not given), the pEC50 is 5.02.

For `CCc1ccc(Nc2n[n+](-c3ccccc3)c(-c3ccc(OCc4ccccc4)cc3)s2)cc1`, the EC50 is > 30 µM (inactive).

Turning to `C#CCOCCOCCOCCNc1nc(N2CCN(C(=O)[C@H]([C@@H](C)CC)n3cc([C@@H](N)CC(C)C)nn3)CC2)nc(N2CCN(C(=O)[C@H](Cc3cc4ccccc4[nH]3)n3cc([C@@H](N)Cc4ccc(O)cc4)nn3)CC2)n1`, the EC50 was > 30 µM (inactive).

On to `Cc1nn2c(N)csc2nc1=O`, for which the EC50 entry is “inactive”.

As to `NC(N)=N/N=C/c1ccc(OCc2ccccc2Cl)cc1`, the EC50 is > 30 µM (inactive).

Consider `CC(C)n1cc(CN2CCC(C(=O)Nc3cccc(-c4cccc(Cl)c4)c3)CC2)cn1`, for which the EC50 is > 30 µM (inactive).

On to `CN(C)c1ccc(/C=C/C=C2/SC(=S)N(c3ccccc3)C2=O)cc1`, for which the EC50 result was “inactive”.

As for `C#CCOCCOCCOCCNc1nc(N2CCN(C(=O)[C@H](Cc3cc4ccccc4[nH]3)n3cc([C@@H](N)CC(C)C)nn3)CC2)nc(N2CCN(C(=O)[C@H](Cc3cc4ccccc4[nH]3)n3cc([C@@H](N)CC(C)C)nn3)CC2)n1`, the pEC50 is 5.84.

Regarding `CCN(CC)CCOc1ccc2c(c1)C(=NNC(=O)c1ccccn1)c1cc(OCCN(CC)CC)ccc1-2`, the pEC50 is 5.26.

Turning to `CCN1/C(=C/C=C/C=C/C=C/c2sc3ccccc3[n+]2CC)Sc2ccccc21`, the EC50 is > 30 µM (inactive).

Consider `NC(=NCCCCCCN=C(N)/N=C(\N)Nc1ccc(Cl)cc1)/N=C(\N)Nc1ccc(Cl)cc1`, for which the EC50 was > 30 µM (inactive).

As for `CCCCCCCCCCOC(=O)Cn1c(COc2ccc(OC)cc2)[n+](C)c2ccccc21`, the EC50 is > 30 µM (inactive).

In the case of `NC(=O)CSc1nnc(Cc2ccc3c(c2)OCO3)o1`, the EC50 was > 30 µM (inactive).

`CC[C@@H](C)[C@H](CNC)NC[C@@H](Cc1cccc2ccccc12)NCCc1cccc(C(F)(F)F)c1`: the EC50 was > 30 µM (inactive).

In the case of `C#CCOCCOCCOCCNc1nc(N2CCN(C(=O)[C@H](Cc3cc4ccccc4[nH]3)n3cc([C@@H](N)C(C)CC)nn3)CC2)nc(N2CCN(C(=O)[C@H](Cc3cc4ccccc4[nH]3)n3cc([C@@H](N)Cc4ccc(O)cc4)nn3)CC2)n1` (stereo not given in full), the pEC50 was 5.42.

Take `CCN1CCN(Cc2ccc(NC(=O)c3ccc(C)c(NC(=O)C(=O)c4c[nH]c5ccccc45)c3)cc2C(F)(F)F)CC1`: the EC50 was > 30 µM (inactive).

In the case of `C#CCOCCOCCOCCNc1nc(N2CCN(C(=O)[C@H](CCCCN)n3cc([C@@H](N)CC(C)C)nn3)CC2)nc(N2CCN(C(=O)[C@H](Cc3cc4ccccc4[nH]3)n3cc([C@@H](N)Cc4ccc(O)cc4)nn3)CC2)n1`, the pEC50 was 4.96.

Consider `C#CCOCCOCCOCCNc1nc(N2CCN(C(=O)[C@H]([C@@H](C)CC)n3cc([C@@H](N)CC(C)C)nn3)CC2)nc(N2CCN(C(=O)[C@H](Cc3cc4ccccc4[nH]3)n3cc([C@@H](N)CC(C)C)nn3)CC2)n1`, for which the pEC50 was 4.68.

As for `COc1ccc(CNC[C@@H](CCCCN(C)Cc2ccc(OC)cc2)N2C[C@H](c3ccccc3)N(CCc3ccc(Cl)c(Cl)c3)C(=O)C2=O)cc1`, the EC50 was > 30 µM (inactive).

Take `O=[N+]([O-])c1ccc(/C=C/C2=NN(c3ccccc3)C(c3ccco3)C2)o1` (stereo not given): the EC50 is > 30 µM (inactive).

For `COc1ccc(NC(=O)N(Cc2cc3cc(C)ccc3[nH]c2=O)CC2CCCO2)cc1` (stereo not given), the EC50 is > 30 µM (inactive).

As to `CCN1CCN(Cc2ccc(NC(=O)c3cc(NC(=O)C(=O)c4c[nH]c5ccccc45)cc(OC)c3)cc2C(F)(F)F)CC1`, the pEC50 is 6.30.

As to `CCc1ccc(Nc2n[n+](-c3ccccc3)c(-c3cc(OC)c(OC)cc3Br)s2)cc1`, the pEC50 was 5.08.

`COCCNC(=O)CN(c1cc(Cl)ccc1OC)S(=O)(=O)c1ccc(C)c([N+](=O)[O-])c1`: the EC50 was > 30 µM (inactive).

In the case of `CCOC(=O)c1c(-c2ccc(-c3ccccc3)cc2)csc1NC(=O)CNCCN(C)C`, the pEC50 was 5.96.

For `Cc1ccnc(NC(=O)C2(c3cccs3)CCOCC2)c1`, the EC50 was > 30 µM (inactive).

With `CCCCCCCCCCOC(=O)Cn1c(COc2ccccc2C)[n+](C)c2ccccc21`, the pEC50 is 5.99.

The test is the same for the next values; noted with them: Bead-based multiplex flow cytometry, measured here: Ki for PB1 binding.
As to `CCN1/C(=C/c2ccc3cc(C)cc(C)c3[n+]2CC)Sc2cc(C)ccc21`, the pKi (in general, the Ki on a negative log10 scale, so that one unit is a factor of ten) is 5.76.

For the compound `O=C1Nc2ccc(Br)cc2/C1=N/N=C/C1=C(N2CCOCC2)C(=C\c2ccccc2)/CC1`, the pKi was 5.69.

Consider `CN1C(=CC=C2C=C(I)C(=O)C(I)=C2)C(C)(C)c2ccccc21`, for which the pKi was 5.30.

As to `CCN(CC)CCOC(=O)c1ccc(N/C=C(/C#N)c2nc(-c3cc4ccccc4oc3=O)cs2)cc1`, the pKi is 5.32.

Take `Cc1nn2c(N)csc2nc1=O`: the pKi is 5.48.
